# Measurements published in patent US7179806B2, “Δ1-pyrrolines used as pesticides” (Bayer Cropscience AG, priority 2000, dated 2007).
# System: greenhouse red spider mite (tetranychus urticae)
# Experiment: Tetranychus test (OP-resistant/dip treatment)
# Assay type: in vivo
# Settings: active compound concentration 100 ppm, OP-resistant, dip treatment
# Procedure: Tetranychus Test (OP Resistant/Dip Treatment)
# To produce a suitable preparation of active compound, 1 part by weight of active compound is mixed with the stated amounts of solvent and emulsifier, and the concentrate is diluted with emulsifier-containing water to the desired concentration.
# Bean plants (Phaseolus vulgaris) which are heavily infested by all stages of the greenhouse red spider mite (tetranychus urticae) are dipped into a preparation of active compound of the desired concentration.
# After the desired period of time, the effect in % is determined. 100% means that all spider mites have been killed; 0% means that none of the spider mites have been killed.
row,SMILES,Kill rate in % after 7 d [%]
1,CC(C)Sc1ccc(-c2ccc(C3CCC(c4c(F)cccc4F)=N3)cc2)nn1 (stereo not drawn) [drawing 297],98
2,Fc1cccc(F)c1C1=NC(c2ccc(-c3cncnc3)cc2)CC1 (stereo not drawn) [drawing 293],98
3,Fc1cccc(F)c1C1=NC(c2ccc(-c3ccc(Cl)nc3)cc2)CC1 (stereo not drawn) [drawing 299],98
4,Fc1cccc(F)c1C1=NC(c2ccc(-c3cnc(N4CCOCC4)nc3)cc2)CC1 (stereo not drawn) [drawing 298],98
5,Fc1cccc(F)c1C1=NC(c2ccc(-c3ccc(Cl)cn3)cc2)CC1 (stereo not drawn) [drawing 294],98
6,CC(C)Oc1ncc(-c2ccc(C3CCC(c4c(F)cccc4F)=N3)cc2)cn1 (stereo not drawn) [drawing 296],98
7,CN(C)c1ncc(-c2ccc(C3CCC(c4c(F)cccc4F)=N3)cc2)cn1 (stereo not drawn) [drawing 295],98

# System: army worm (Spodoptera frugiperda) caterpillars
# Experiment: Spodoptera frugiperda test (cabbage leaves dipped)
# Assay type: in vivo
# Settings: 168 h, active compound concentration 500 ppm, after 7 d, read-out: Kill rate in % after 7 d
# Procedure: (§1) Spodoptera frugiperda Test To produce a suitable preparation of active compound, 1 part by weight of active compound is mixed with the stated amounts of solvent and emulsifier, and the concentrate is diluted with emulsifier-containing water to the desired concentration. Cabbage leaves (Brassica oleracea) are treated by being dipped into the preparation of active compound of the desired concentration and are populated with army worm (Spodoptera frugiperda) caterpillars whilst the leaves are still moist. After the desired period of time, the kill in % is determined. 100% means that all caterpillars have been killed; 0% means that none of the caterpillars have been killed.
row,SMILES,pest or weed control at 500 ppm [%]
1,O=C1CCCN1c1ccc(-c2ccc(C3CCC(c4c(F)cccc4F)=N3)cc2)nn1 (stereo not drawn) [drawing 285],100
2,CN(c1ccc(-c2ccc(C3CCC(c4c(F)cccc4F)=N3)cc2)nn1)S(=O)(=O)C(F)(F)F (stereo not drawn) [drawing 286],100
3,CCCCN(CCCC)c1ccc(-c2ccc(C3CCC(c4c(F)cccc4F)=N3)cc2)nn1 (stereo not drawn) [drawing 287],100

# Same assay, conditions: 168 h, active compound concentration 1000 ppm, after 7 d, read-out: Kill rate in % after 7 d
row,SMILES,pest or weed control at 1000 ppm [%]
1,CCCCCCN(CCCCCC)c1ccc(-c2ccc(C3CCC(c4c(F)cccc4F)=N3)cc2)nn1 (stereo not drawn),100
2,CCCCCCN(C(=O)C(C)(C)C)c1ccc(-c2ccc(C3CCC(c4c(F)cccc4F)=N3)cc2)nn1 (stereo not drawn) [drawing 290],100
3,CC(C)Oc1ccc(-c2ccc(C3CCC(c4c(F)cccc4F)=N3)cc2)nn1 (stereo not drawn) [drawing 282],100
4,CC1CC(C)CN(c2ncc(-c3ccc(C4CCC(c5c(F)cccc5F)=N4)cc3)cn2)C1 (stereo not drawn) [drawing 292],100
5,CC(C)COc1ncc(-c2ccc(C3CCC(c4c(F)cccc4F)=N3)cc2)cn1 (stereo not drawn) [drawing 291],100
6,CC(C)Sc1ccc(-c2ccc(C3CCC(c4c(F)cccc4F)=N3)cc2)nn1 (stereo not drawn) [drawing 283],100
7,Fc1cccc(F)c1C1=NC(c2ccc(-c3cnc(N4CCOCC4)nc3)cc2)CC1 (stereo not drawn) [drawing 284],100
8,CN(C)c1ncc(-c2ccc(C3CCC(c4c(F)cccc4F)=N3)cc2)cn1 (stereo not drawn) [drawing 281],100
9,CCCCCCC(=O)N(c1ccc(-c2ccc(C3CCC(c4c(F)cccc4F)=N3)cc2)nn1)C1CCCC1 (stereo not drawn) [drawing 289],100
10,Fc1cccc(F)c1C1=NC(c2ccc(-c3ccc(Cl)cn3)cc2)CC1 (stereo not drawn) [drawing 280],100

# System: army worm (Spodoptera exigua) caterpillars
# Experiment: Spodoptera exigua test (cabbage leaves dipped)
# Assay type: in vivo
# Settings: active compound concentration 500 ppm
# Procedure: as §1, with “Exigua” for “frugiperda”, “exigua)” for “frugiperda)”
row,SMILES,Kill rate in % after 7 d [%]
1,Fc1cccc(F)c1C1=NC(c2ccc(-c3ccc(OCC(F)(F)F)nc3)cc2)CC1 (stereo not drawn) [drawing 277],100
2,CCCN(CC)c1ncc(-c2ccc(C3CCC(c4c(F)cccc4F)=N3)cc2)cn1 (stereo not drawn) [drawing 278],100

# Same assay, conditions: active compound concentration 1000 ppm
row,SMILES,Kill rate in % after 7 d [%]
1,Fc1cccc(F)c1C1=NC(c2ccc(-c3ccc(N4CCOCC4)nc3)cc2)CC1 (stereo not drawn) [drawing 279],100

# System: Heliothis virescens caterpillars
# Experiment: Heliothis virescens test (soya bean shoots dipped)
# Assay type: in vivo
# Settings: active compound concentration 40 ppm
# Procedure: as §1, with “Heliothis Virescens” for “Spodoptera frugiperda”, “Soya bean shoots (Glycine max)” for “Cabbage leaves (Brassica oleracea)”, “Heliothis virescens” for “army worm (Spodoptera frugiperda)”
row,SMILES,Kill rate in % after 7 d [%]
1,CC(C)Oc1ncc(-c2ccc(C3CCC(c4c(F)cccc4F)=N3)cc2)cn1 (stereo not drawn) [drawing 265],100
2,Fc1cccc(F)c1C1=NC(c2ccc(-c3ccc(C(F)(F)F)cn3)cc2)CC1 (stereo not drawn) [drawing 266],100
3,Fc1cccc(F)c1C1=NC(c2ccc(-c3ccc(OCC(F)(F)F)nn3)cc2)CC1 (stereo not drawn) [drawing 264],100
4,CCCN(CC)c1ncc(-c2ccc(C3CCC(c4c(F)cccc4F)=N3)cc2)cn1 (stereo not drawn) [drawing 268],100

# Same assay, conditions: active compound concentration 500 ppm
row,SMILES,Kill rate in % after 7 d [%]
1,Fc1cccc(F)c1C1=NC(c2ccc(-c3ccc(OCC(F)(F)F)nc3)cc2)CC1 (stereo not drawn) [drawing 267],100
2,Fc1cccc(F)c1C1=NC(c2ccc(-c3ccc(N4CCOCC4)nc3)cc2)CC1 (stereo not drawn) [drawing 269],100

# System: not listed separately
# Experiment: log P determination by HPLC (reversed-phase C18, EEC Directive 79/831 Annex V.A8)
# Assay type: physicochemical
# Settings: reversed-phase C18 HPLC column, pH 2.3, pH 2.3, 0.1% aqueous phosphoric acid/acetonitrile gradient, 43° C
# Source text: Mobile phases for determination in the acidic range: 0.1% aqueous phosphoric acid, acetonitrile; linear gradient from 10% acetonitrile to 90% acetonitrile.
row,chromatographic logP,SMILES
1,2.39,COC(=O)c1ccc(-c2ccc(C3CCC(c4c(F)cccc4F)=N3)cc2)nc1 (stereo not drawn) [Example 7]
2,2.7,CCCN(CCC)C(=O)c1ccc(-c2ccc(C3CCC(c4c(F)cccc4F)=N3)cc2)nc1 (stereo not drawn) [Example 11]
3,0.51,"CCN(CC)c1ccc(Cl)nn1 [III-10, N-(6-chloro-3-pyridazinyl)-N,N-diethylamine]"
4,3.25,Fc1cccc(F)c1C1=NC(c2ccc(-c3ccc(C(F)(F)F)cn3)cc2)CC1 (stereo not drawn) [Example 2]
5,5.47,CC(C)(C)C1CCN(c2ncc(-c3ccc(C4CCC(c5c(F)cccc5F)=N4)cc3)cn2)CC1 (stereo not drawn) [Example 119]
6,3.22,CC(C)(C)C(=O)N(c1ccc(-c2ccc(C3CCC(c4c(F)cccc4F)=N3)cc2)nn1)C1CCCC1 (stereo not drawn) [Example 63]
7,1.82,CCCCN(CC)c1ccc(-c2ccc(C3CCC(c4c(F)cccc4F)=N3)cc2)nn1 (stereo not drawn) [Example 77]
8,1.04,CN1CCN(c2ccc(-c3ccc(C4CCC(c5c(F)cccc5F)=N4)cc3)cn2)CC1 (stereo not drawn) [Example 96]
9,3.21,COCCN(Cc1ccc(-c2ccc(C3CCC(c4c(F)cccc4F)=N3)cc2)nc1)S(=O)(=O)C(F)(F)F (stereo not drawn) [Example 16]
10,4.35,CCCCCCN(C(=O)C(C)(C)C)c1ccc(-c2ccc(C3CCC(c4c(F)cccc4F)=N3)cc2)nn1 (stereo not drawn) [Example 61]
11,3.08,Fc1cccc(F)c1C1=NC(c2ccc(-c3ncc(Br)cn3)cc2)CC1 (stereo not drawn) [Example 180]
12,1.78,Fc1ccc(CN2CCN(c3ncc(-c4ccc(C5CCC(c6c(F)cccc6F)=N5)cc4)cn3)CC2)cc1 (stereo not drawn) [Example 145]
13,1.69,"CN(C(=O)C(C)(C)C)c1ccc(Cl)nn1 [III-17, N-(6-chloro-3-pyridazinyl)-N-methyl-N-2,2-trimethylpropanamide]"
14,4.82,CCCCCCC(=O)N(c1ccc(-c2ccc(C3CCC(c4c(F)cccc4F)=N3)cc2)nn1)C1CCCC1 (stereo not drawn) [Example 58]
15,3.85,Fc1cccc(F)c1C1=NC(c2ccc(-c3cnc(OC(C(F)(F)F)C(F)(F)F)nc3)cc2)CC1 (stereo not drawn) [Example 95]
16,3.5,CN(c1ncc(-c2ccc(C3CCC(c4c(F)cccc4F)=N3)cc2)cn1)S(=O)(=O)C(F)(F)F (stereo not drawn) [Example 37]
17,1.65,CCC(C)N1CCN(c2ncc(-c3ccc(C4CCC(c5c(F)cccc5F)=N4)cc3)cn2)CC1 (stereo not drawn) [Example 158]
18,3.17,Fc1cccc(F)c1C1=NC(c2ccc(-c3ccc(N4CCN(c5cccc(Cl)c5)CC4)nc3)cc2)CC1 (stereo not drawn) [Example 165]

# System: larvae of the mustard beetle (Phaedon cochleariae)
# Experiment: Phaedon larvae test (cabbage leaves dipped)
# Assay type: in vivo
# Settings: active compound concentration 1000 ppm
# Procedure: as §1, with “Phaedon Larvae” for “Spodoptera frugiperda”, “larvae of the mustard beetle (Phaedon cochleariae)” for “army worm (Spodoptera frugiperda) caterpillars”, “beetle larvae” for “caterpillars”
row,SMILES,Kill rate in % after 7 d [%]
1,Fc1cccc(F)c1C1=NC(c2ccc(-c3ccc(C(F)(F)F)cn3)cc2)CC1 (stereo not drawn) [drawing 271],100
2,CC1CC(C)CN(c2ncc(-c3ccc(C4CCC(c5c(F)cccc5F)=N4)cc3)cn2)C1 (stereo not drawn) [drawing 275],100
3,CCCN(CC)c1ncc(-c2ccc(C3CCC(c4c(F)cccc4F)=N3)cc2)cn1 (stereo not drawn) [drawing 274],100
4,CC(C)Sc1ncc(-c2ccc(C3CCC(c4c(F)cccc4F)=N3)cc2)cn1 (stereo not drawn) [drawing 272],100
5,Fc1cccc(F)c1C1=NC(c2ccc(-c3cnc(N4CCCCC4)nc3)cc2)CC1 (stereo not drawn) [drawing 276],100
6,CC(C)Oc1ncc(-c2ccc(C3CCC(c4c(F)cccc4F)=N3)cc2)cn1 (stereo not drawn) [drawing 270],100
7,Fc1cccc(F)c1C1=NC(c2ccc(-c3ccc(OCC(F)(F)F)nc3)cc2)CC1 (stereo not drawn) [drawing 273],100
